# Test results taken from the OligoGym collection.
# “And” between values parts separate entries of the source, which are not always exact repeats. Equal entries are not always repeated. HELM strings list units from the 5' end as sugar, base in round brackets, then linkage (d deoxyribose, r ribose, m 2'-O-methyl, p phosphodiester). Strings are as the collection lists them, not checked against the first reports. ss, as = sense and antisense strand; [fl2r] = 2'-fluoro
# Details: siRNA
# Note: test system not given here.
row,Substance,target mRNA knockdown
1,RNA1{r(C)p.[fl2r](U)p.r(A)p.r(G)p.r(A)p.r(G)p.r(G)p.r(A)p.r(U)p.r(C)p.r(U)p.[fl2r](U)p.r(G)p.r(A)p.r(A)p.r(G)p.r(A)p.r(C)p.r(C)p.r(T)p.r(T)}|RNA2{r(G)p.r(G)p.r(U)p.r(C)p.r(U)p.r(U)p.[fl2r](C)p.r(A)p.r(A)p.r(G)p.r(A)p.r(U)p.r(C)p.r(C)p.r(U)p.r(C)p.[fl2r](U)p.r(A)p.r(G)p.r(T)p.r(T)}$$$RNA1{StrandType:ss}|RNA2{StrandType:as}$,67% and 91%
2,RNA1{r(C)p.[fl2r](U)p.r(A)p.r(G)p.r(A)p.r(G)p.r(G)p.r(A)p.r(U)p.r(C)p.r(U)p.r(U)p.r(G)p.r(A)p.r(A)p.r(G)p.r(A)p.r(C)p.r(C)p.r(T)p.r(T)}|RNA2{r(G)p.r(G)p.r(U)p.r(C)p.r(U)p.r(U)p.r(C)p.r(A)p.r(A)p.r(G)p.r(A)p.r(U)p.r(C)p.r(C)p.r(U)p.r(C)p.r(U)p.r(A)p.r(G)p.r(T)p.r(T)}$$$RNA1{StrandType:ss}|RNA2{StrandType:as}$,81%
3,RNA1{r(C)p.[fl2r](U)p.r(G)p.r(A)p.r(C)p.r(C)p.r(G)p.r(G)p.r(A)p.r(A)p.[fl2r](G)p.r(C)p.r(G)p.r(C)p.r(U)p.[fl2r](U)p.r(A)p.r(A)p.r(A)p.r(T)p.r(T)}|RNA2{r(U)p.r(U)p.[fl2r](U)p.r(A)p.r(A)p.r(G)p.r(C)p.r(G)p.r(C)p.r(U)p.r(U)p.r(C)p.r(C)p.r(G)p.r(G)p.r(U)p.[fl2r](C)p.r(A)p.r(G)p.r(T)p.r(T)}$$$RNA1{StrandType:ss}|RNA2{StrandType:as}$,85%
4,RNA1{r(C)p.[fl2r](U)p.r(G)p.r(A)p.r(C)p.r(C)p.r(G)p.r(G)p.r(A)p.r(A)p.r(G)p.r(C)p.r(G)p.r(C)p.r(U)p.r(U)p.r(A)p.r(A)p.r(A)p.r(T)p.r(T)}|RNA2{r(U)p.r(U)p.[fl2r](U)p.r(A)p.r(A)p.r(G)p.r(C)p.r(G)p.r(C)p.r(U)p.r(U)p.r(C)p.r(C)p.r(G)p.r(G)p.r(U)p.r(C)p.r(A)p.r(G)p.r(T)p.r(T)}$$$RNA1{StrandType:ss}|RNA2{StrandType:as}$,87%
5,RNA1{r(C)p.m(C)p.r(C)p.m(C)p.r(A)p.m(G)p.r(G)p.m(U)p.r(A)p.m(A)p.r(C)p.m(G)p.r(A)p.r(U)p.r(U)p.m(U)p.r(U)p.r(C)p.r(U)p.r(T)p.r(T)}|RNA2{r(A)p.r(G)p.r(A)p.r(A)p.r(A)p.r(A)p.r(U)p.m(C)p.r(G)p.r(U)p.r(U)p.r(A)p.m(C)p.m(C)p.r(U)p.r(G)p.r(G)p.r(G)p.r(G)p.r(T)p.r(T)}$$$RNA1{StrandType:ss}|RNA2{StrandType:as}$,69%
6,RNA1{r(C)p.m(U)p.m(A)p.r(C)p.r(C)p.r(U)p.r(U)p.r(C)p.r(U)p.r(C)p.r(C)p.r(U)p.r(C)p.r(U)p.r(U)p.r(C)p.r(U)p.r(C)p.r(C)p.r(T)p.r(T)}|RNA2{r(G)p.r(G)p.r(A)p.r(G)p.r(A)p.r(A)p.r(G)p.r(A)p.r(G)p.r(G)p.r(A)p.r(G)p.r(A)p.r(A)p.r(G)p.r(G)p.m(U)p.m(A)p.r(G)p.r(T)p.r(T)}$$$RNA1{StrandType:ss}|RNA2{StrandType:as}$,68%
7,RNA1{r(C)p.m(U)p.r(A)p.r(C)p.r(C)p.r(U)p.r(U)p.r(C)p.r(U)p.r(C)p.r(C)p.r(U)p.r(C)p.r(U)p.r(U)p.r(C)p.r(U)p.r(C)p.r(C)p.r(T)p.r(T)}|RNA2{r(G)p.r(G)p.r(A)p.r(G)p.r(A)p.r(A)p.r(G)p.r(A)p.r(G)p.r(G)p.r(A)p.r(G)p.r(A)p.r(A)p.r(G)p.r(G)p.m(U)p.r(A)p.r(G)p.r(T)p.r(T)}$$$RNA1{StrandType:ss}|RNA2{StrandType:as}$,69%
8,RNA1{r(C)p.m(U)p.r(A)p.r(G)p.r(U)p.r(C)p.r(G)p.r(A)p.m(A)p.r(A)p.r(G)p.r(A)p.m(A)p.m(A)p.r(A)p.r(C)p.r(G)p.r(G)p.r(G)p.r(T)p.r(T)}|RNA2{r(C)p.r(C)p.r(C)p.r(G)p.r(U)p.r(U)p.r(U)p.r(U)p.r(C)p.r(U)p.r(U)p.r(U)p.r(C)p.r(G)p.r(A)p.r(C)p.m(U)p.r(A)p.r(G)p.r(T)p.r(T)}$$$RNA1{StrandType:ss}|RNA2{StrandType:as}$,55%
9,RNA1{r(C)p.m(U)p.r(A)p.r(G)p.r(U)p.r(C)p.r(G)p.r(A)p.r(A)p.r(A)p.r(G)p.r(A)p.r(A)p.r(A)p.r(A)p.r(C)p.r(G)p.r(G)p.r(G)p.r(T)p.r(T)}|RNA2{r(C)p.r(C)p.r(C)p.r(G)p.r(U)p.r(U)p.r(U)p.r(U)p.r(C)p.r(U)p.r(U)p.r(U)p.r(C)p.r(G)p.r(A)p.r(C)p.m(U)p.r(A)p.r(G)p.r(T)p.r(T)}$$$RNA1{StrandType:ss}|RNA2{StrandType:as}$,56%
10,RNA1{r(C)p.m(U)p.r(G)p.r(A)p.r(C)p.r(C)p.r(G)p.r(G)p.r(A)p.r(A)p.r(G)p.r(C)p.r(G)p.r(C)p.r(U)p.m(U)p.r(A)p.r(A)p.r(A)p.r(T)p.r(T)}|RNA2{r(U)p.r(U)p.m(U)p.r(A)p.r(A)p.r(G)p.r(C)p.r(G)p.r(C)p.r(U)p.r(U)p.r(C)p.r(C)p.r(G)p.r(G)p.r(U)p.m(C)p.r(A)p.r(G)p.r(T)p.r(T)}$$$RNA1{StrandType:ss}|RNA2{StrandType:as}$,85%
11,RNA1{r(C)p.r(C)p.r(A)p.[fl2r](G)p.r(C)p.[fl2r](G)p.r(A)p.[fl2r](G)p.r(C)p.r(C)p.r(C)p.r(A)p.r(A)p.r(A)p.r(A)p.[fl2r](G)p.r(A)p.r(A)p.r(A)p.r(T)p.r(T)}|RNA2{[fl2r](U)p.r(U)p.[fl2r](U)p.r(C)p.[fl2r](U)p.r(U)p.[fl2r](U)p.r(U)p.[fl2r](G)p.r(G)p.[fl2r](G)p.r(C)p.[fl2r](U)p.r(C)p.[fl2r](G)p.r(C)p.[fl2r](U)p.r(G)p.[fl2r](G)p.r(T)p.r(T)}$$$RNA1{StrandType:ss}|RNA2{StrandType:as}$,35%
12,RNA1{r(C)p.r(C)p.r(C)p.r(C)p.m(A)p.m(G)p.m(G)p.m(U)p.m(A)p.m(A)p.m(C)p.r(G)p.r(A)p.r(U)p.r(U)p.r(U)p.r(U)p.r(C)p.r(U)p.r(T)p.r(T)}|RNA2{r(A)p.r(G)p.r(A)p.r(A)p.r(A)p.r(A)p.r(U)p.r(C)p.r(G)p.r(U)p.r(U)p.r(A)p.r(C)p.r(C)p.r(U)p.r(G)p.r(G)p.r(G)p.r(G)p.r(T)p.r(T)}$$$RNA1{StrandType:ss}|RNA2{StrandType:as}$,79%
13,RNA1{r(C)p.r(C)p.r(C)p.r(C)p.r(A)p.r(G)p.r(G)p.m(U)p.r(A)p.r(A)p.r(C)p.r(G)p.r(A)p.r(U)p.r(U)p.r(U)p.r(U)p.r(C)p.r(U)p.r(T)p.r(T)}|RNA2{r(A)p.r(G)p.r(A)p.r(A)p.r(A)p.r(A)p.r(U)p.r(C)p.r(G)p.r(U)p.m(U)p.r(A)p.r(C)p.r(C)p.r(U)p.r(G)p.r(G)p.r(G)p.r(G)p.r(T)p.r(T)}$$$RNA1{StrandType:ss}|RNA2{StrandType:as}$,70%
14,RNA1{r(C)p.r(C)p.r(C)p.r(U)p.r(C)p.r(C)p.r(C)p.r(C)p.[fl2r](U)p.r(G)p.r(U)p.r(C)p.r(C)p.r(C)p.r(C)p.r(G)p.[fl2r](C)p.r(U)p.r(U)p.r(T)p.r(T)}|RNA2{r(A)p.r(A)p.r(G)p.r(C)p.r(G)p.r(G)p.r(G)p.r(G)p.r(A)p.[fl2r](C)p.r(A)p.r(G)p.r(G)p.r(G)p.r(G)p.r(A)p.r(G)p.r(G)p.r(G)p.r(T)p.r(T)}$$$RNA1{StrandType:ss}|RNA2{StrandType:as}$,72%
